“Also recorded” adds a separate entry of the source.
Assays:
P19 stem cells = experiment: Sulforhodamine B cell proliferation/survival assay, P19 stem cells; format: cell-based, mouse; conditions: for % Control (quantity of surviving cells as percentage of DMSO-only control): P19 stem cells, 20 μg/ml, 48 h exposure; for inhibition of P19 cell growth (in words): single dose of 20 μg/ml, 48 hours
Description: FIG. 2 is a graph showing the results of dose-response studies comparing the effectiveness of extracts from four species of birch (B. papyrifera, B. kenaica, B. neoalaskana, and B. pendula) with betulinic acid (BetA) and betulin 3-caffeate (Bet3C). Concentrations of from 2.5 to 20 μg/ml were added to cultures of P19 stem cells for 48 h, and the numbers of surviving cells measured using sulforhodamine B assays.
(§1) Cell Proliferation Measurements: Sulforhodamine B assays (Skehan, P. et al. (1990). J. Natl. Cancer Inst. 82:1107-1112.) were conducted to measure the effects of compounds and extractives of interest on the proliferation of a number of different cell lines. Cell lines used include mouse P19 and human NT2-D1 stem cells, mouse K1735-M2 melanoma cells, human LNCaP and PC-3 prostate cancer cells, and human MCF-7 breast cancer cells. Other cell lines include normal human fibroblast BJ cells, human Caov-3 ovarian cancer cells, human U87 brain glioma cells, human HL-60 acute promyelocytic leukemia cells, human MOLT-4 acute lymphoblastic leukemia cells, human U937 histiocytic lymphoma cells, human MDA-MB-231 breast cancer cells, C2BBe1 cells (a clone of the human colorectal cell line Caco-2), human K562 chronic myeloid leukemia cells, human WM32-11 primary melanoma cells with radial growth phase-like phenotype (early primary melanoma), and human WM793 melanoma cells with vertical growth phase-like phenotype. Cells were seeded at a concentration of 2.5×10^4 cells/ml in 24-well plates, and allowed to recover for 2 days prior to drug addition. Test compounds were prepared in most instances as stock solutions in dimethylsulfoxide (DMSO). Compounds were then added to multiwell plates at final concentrations of […]. Control wells received an equivalent amount of vehicle (DMSO) only. After 1-3 days of incubation, the culture medium was decanted from each plate, and the cells fixed with cold (−10° C.) absolute methanol containing 1% acetic acid for at least 30 minutes. Subsequently, the methanol was decanted, and the plate air-dried. Sulforhodamine B (0.5% in 1% acetic acid) was added to each well, and the plate incubated at 35° C. for 1 hour. Plates were rinsed with 1% acetic acid, air-dried, and the bound dye eluted with 1 ml of 10 mM Tris buffer, pH 10. The absorbance was measured in a spectrophotometer at 540 nm; the amount of dye released is proportional to the number of cells present in the dish, and is a reliable indicator of cell proliferation.
A single dose of 20 μg/ml of either extract, pure compound, or a mixture of compounds, was added to cultures of P19 stem cells, and the growth of the cells measured after 48 hours of treatment (FIG. 1).
(§2) Stock solutions of compounds and extracts were diluted to 2 mg/ml in dimethylsulfoxide (DMSO), and subsequently added to samples at a final concentration of 20 μg/ml (10 μl/ml of a 2 mg/ml stock solution); controls received an equivalent amount of DMSO only (10 μl/ml). After 48 h, samples were fixed with methanol-acetic acid, and the quantity of surviving cells determined by sulforhodamine B staining methods (discussed above). The quantity of surviving cells is expressed as a percentage of the control (DMSO-only) cultures, which was set to 100%. […] Extracts and betulinic acid induce a relatively modest increase in the numbers of dead cells present the cultures (about 10-40%).

K1735-M2 melanoma cells = experiment: Sulforhodamine B cell proliferation assay, K1735-M2 melanoma cells; format: cell-based, mouse; conditions: 2.5-10 mg/ml, 48 h
Description: (§3) FIG. 3 is a bar graph showing a comparison of the effects of betulin 3-caffeate on other types of malignant cancer cell lines. P19 stem cells, K1735-M2 melanoma cells and MCF-7 breast cancer cells were treated with […] betulinic acid or betulin-3-caffeate for 48 h and cell quantity determined by sulforhodamine B assays.
as §1, with “After 1-3 days of incubation, the culture medium was decanted from each plate, and the cells fixed with cold (−10° C.) absolute methanol containing 1% acetic acid for at least 30 minutes. Subsequently, the methanol was decanted, and the plate air-dried. Sulforhodamine B (0.5% in 1% acetic acid) was added to each well, and the plate incubated at 35° C. for 1 hour. Plates were rinsed with 1% acetic acid, air-dried, and the bound dye eluted with 1 ml of 10 mM Tris buffer, pH 10.” left out

[1] = tested on: MCF-7 breast cancer cells; experiment: Sulforhodamine B cell proliferation assay, MCF-7 breast cancer cells; format: cell-based, human; conditions: 2.5-10 mg/ml, 48 h
Description: as §3
as §1, with “After 1-3 days of incubation, the culture medium was decanted from each plate, and the cells fixed with cold (−10° C.) absolute methanol containing 1% acetic acid for at least 30 minutes. Subsequently, the methanol was decanted, and the plate air-dried. Sulforhodamine B (0.5% in 1% acetic acid) was added to each well, and the plate incubated at 35° C. for 1 hour. Plates were rinsed with 1% acetic acid, air-dried, and the bound dye eluted with 1 ml of 10 mM Tris buffer, pH 10.” left out

P19 cells = experiment: P19 cell death by propidium iodide labeling with flow cytometry; format: cell-based, mouse; conditions: 48 hours
Description: FIG. 4 is a bar graph showing measurements of P19 cell death induced by extracts, betulinic acid (BetA) and betulin 3-caffeate (Bet3C). Because the reduction in cell numbers detected by sulforhodamine B assays could result from either an inhibition of cell proliferation or an induction of cell death (or a combination of both), propidium iodide labeling was used in conjunction with flow cytometry to detect dead and dying cells with compromised plasma membranes.
as §2

[2] = Light absorption analysis by UV-VIS spectrophotometer; format: physicochemical; conditions: for Light absorption range (λ, nm): UV-VIS spectrophotometer
Description: Sunscreens block the cutaneous absorption of UV radiation at 280-315 nm.

| Molecule | % Control (quantity of surviving cells as percentage of DMSO-only control) (P19 stem cells) [%] | inhibition of P19 cell growth (in words) (P19 stem cells) | Light absorption range (λ, nm) [2] | ε (molar extinction coefficient) ([2]; at λmax 220) | ε (molar extinction coefficient) ([2]; at λmax 245) | ε (molar extinction coefficient) ([2]; at λmax 305) | ε (molar extinction coefficient) ([2]; at λmax 325) | also measured |
| --- | --- | --- | --- | --- | --- | --- | --- | --- |
| O=C(O)CCCCCCCCCCCCCCCCCCCCC(=O)O [Sample 9, Docosandioic acid] | 61.5 |  |  |  |  |  |  |  |
| O=C(O)CCCCCCCCCCCCCCCCCCCCCO [Sample 12, 22-hydroxydocosanoic acid] | 51.4 |  |  |  |  |  |  |  |
| O=C(O)CCCCCCC/C=C\CCCCCCCCO [Sample 13, Cis-18-hydroxyoctadec-9-enoic acid] | 65.9 |  |  |  |  |  |  |  |
| C=C(C)[C@@H]1CC[C@]2(C(=O)O)CC[C@]3(C)C(CC[C@@H]4[C@@]5(C)CC[C@H](O)C(C)(C)C5CC[C@]43C)C12 (stereo partly drawn) [Sample 14, 3(β)-hydroxy-20(29)-lupaene-28-oic acid, reference compound] | 1.3 |  |  |  |  |  |  | inhibition of M2 melanoma cell growth (in words) (K1735-M2 melanoma cells): significantly inhibited; inhibition of P19 cell growth (in words) (P19 stem cells; listed as betulinic acid): even more profoundly inhibited cell growth; also recorded: among the most active compounds in inhibiting cell proliferation; inhibition of MCF-7 breast cancer cell growth (in words) [1]: do not appear to be as sensitive; increase in the quantity of dead cells present in the cultures (P19 cells): 10-40% |
| CC1(C)CC[C@]2(C(=O)O)CC[C@]3(C)C(=CC[C@@H]4[C@@]5(C)CC[C@H](O)C(C)(C)[C@@H]5CC[C@]43C)[C@@H]2C1 [Sample 15, Oleanolic acid] | 22.3 | less effective |  |  |  |  |  |  |
| C=C(C)[C@@H]1CC[C@]2(C)CC[C@]3(C)[C@H](CC[C@@H]4[C@@]5(C)CC[C@H](O)C(C)(C)[C@@H]5CC[C@]43C)[C@@H]12 [Sample 16, Lupeol] | 58.9 | less effective |  |  |  |  |  |  |
| C=C(C)[C@@H]1CC[C@]2(CO)CC[C@]3(C)C(CC[C@@H]4[C@@]5(C)CC[C@H](O)C(C)(C)C5CC[C@]43C)C12 (stereo partly drawn) [Sample 17, 3β,28-dihydroxy-lup-20(29)-ene] | 14.8 | less effective |  |  |  |  |  |  |
| C=C(C)[C@@H]1CC[C@]2(COC(=O)/C=C/c3ccc(O)c(O)c3)CC[C@]3(C)[C@H](CC[C@@H]4[C@@]5(C)CC[C@H](OC(=O)/C=C/c6ccc(O)c(O)c6)C(C)(C)[C@@H]5CC[C@]43C)[C@@H]12 [betulin-3,28-dicaffeate] |  |  | 200-350 nm | 13978 | 10018 | 13341 | 15375 |  |
| C=C(C)[C@@H]1CC[C@]2(CO)CC[C@]3(C)[C@H](CC[C@@H]4[C@@]5(C)CC[C@H](OC(=O)/C=C/c6ccc(O)c(O)c6)C(C)(C)[C@@H]5CC[C@]43C)[C@@H]12 [betulin-3-caffeate, (3β)-3-Caffeyloxylup-20(29)-en-28-ol] | 1.2 | even more profoundly inhibited cell growth | 210-360 nm | 2280 | 1795 | 2575 | 2865 | inhibition of M2 melanoma cell growth (in words) (K1735-M2 melanoma cells): significantly inhibited; effectiveness in inhibiting cell growth compared with betulinic acid (in words) (K1735-M2 melanoma cells; K1735-M2 melanoma cells): more effective in inhibiting cell growth than betulinic acid; inhibition of P19 stem cell growth in dose response studies (in words) (P19 stem cells; 2.5 to 20 μg/ml, 48 h): more effectively inhibits P19 stem cell growth; potency in inhibiting growth of P19 cells relative to betulinic acid (P19 stem cells; concentrations of 5-10 μg/ml, 48 h): 4 to 5 fold; inhibition of P19 cell growth (in words) (P19 stem cells; listed as betulin 3-caffeate): among the most active compounds in inhibiting cell proliferation; inhibition of MCF-7 breast cancer cell growth (in words) [1]: do not appear to be as sensitive; effectiveness in inhibiting cell growth compared with betulinic acid (in words) ([1]; MCF-7 cells): more effective in inhibiting cell growth than betulinic acid; increase in the quantity of dead cells present in the cultures (P19 cells): ~200% |
| C=C(C)[C@@H]1CC[C@]2(COC(=O)/C=C/c3ccc(O)c(O)c3)CC[C@]3(C)[C@H](CC[C@@H]4[C@@]5(C)CC[C@H](O)C(C)(C)[C@@H]5CC[C@]43C)[C@@H]12 [betulin-28-caffeate] |  |  | 210-360 nm | 1300 | 875 | 1190 | 1380 |  |
| Hydroxyoctadecanoic acid [Sample 10] | 82.6 |  |  |  |  |  |  |  |
| Treo-hydroxyoctadecanoic acid [Sample 11] | 67.3 |  |  |  |  |  |  |  |
| betulin 3,28,30-tricaffeate |  |  | 210-360 nm | 1230 | 882 | 1174 | 1353 |  |

— patent US20090136566A1, “THERAPEUTIC TRITERPENOIDS” (Regents of the University of Minnesota, priority 2006, published 2009)
